US10385019B2, “Inhibitors of EGFR and methods of use thereof” (Dana-Farber Cancer Institute, Inc., priority 2015, dated 2019)

Molecular target: EGFR T790M/L858R Ba/F3 cell line (Homo sapiens, UniProt P00533, T790M/L858R, cells depend on it)
Test: Ba/F3 cell proliferation model
Type: cell-based, murine
Conditions: combined with cetuximab (% cetuximab, 1.0 μM drug concentration with 1.0 μg/mL cetuximab)
Excerpt: The selectivity between wild-type EGFR and EGFR containing one or more mutations as described herein can also be measured using cellular proliferation assays where cell proliferation is dependent on kinase activity. For example, murine Ba/F3 cells transfected with a suitable version of wild-type EGFR (such as VIII; containing a WT EGFR kinase domain), or Ba/F3 cells transfected with L858R/T790M, Del/T790M/L718Q, L858R/T790M/L718Q, L858R/T790M/C797S, Del/T790M/C797S, L858R/T790M/I941R, or Exon 19 deletion/T790M can be used.
Cell lines are plated in media. The compounds of the present disclosure are then serially diluted and transferred to the cells. Cell viability is measured via a luminescent readout. Data is analyzed by non-linear regression curve-fitting. […]
The EGFR mutant L858R, Del E746_A750, L858R/T790M, DelE746_A750/T790M, L858R/T790M/C797S and Del/T790M/C797S Ba/F3 cells have been previously described (Zhou, W., Ercan, D., Chen, L., Yun, C. H., Li, D., Capelletti, M., Cortot, A. B., Chirieac, L., Iacob, R. E., Padera, R., et al. “Novel mutant-selective EGFR kinase inhibitors against EGFR T790M,” Nature 462, (2009), 1070-1074). All cell lines were maintained in RPMI 1640 (Cellgro; Mediatech Inc., Herndon, Calif.) supplemented with 10% FBS 100 units/mL penicillin, 100 units/mL streptomycin, and 2 mM glutamine. L858R cells were maintained in ACL-4 media (Invitrogen, Carlsbad, Calif.) supplemented with 5% FBS, 100 units/mL penicillin, 100 units/mL streptomycin, and 2 mM glutamine. The EGFR I941R mutation was introduced via site directed mutagenesis using the Quick Change Site-Directed Mutagenesis kit (Stratagene; La Jolla, Calif.) according to the manufacturer's instructions. All constructs were confirmed by DNA sequencing. The constructs were shuttled into the retroviral vector JP 1540 using the BD Creator™ System (BD Biosciences). Ba/F3 cells were infected with retrovirus and according to standard protocols, as described previously (Zhou et al, Nature 2009). Stable clones were obtained by selection in puromycin (2 μg/ml).
Growth and inhibition of growth was assessed by MTS assay and was performed according to previously established methods (Zhou et al., Nature 2009). The MTS assay is a colorimetric method for determining the number of viable cells that is based on the bioreduction of MTS by cells to a formazan product that is soluble in cell culture medium and can be detected spectrophotometrically. Ba/F3 cells of different EGFR genotypes were exposed to treatment for 72 hours and the number of cells used per experiment determined empirically and has been previously established (Zhou et al., Nature 2009). All experimental points were set up in six wells and all experiments were repeated at least three times. […] The curves were fitted using a non-linear regression model with a sigmoidal dose response.
Inhibition data of an EGFR T790M/L858R Ba/F3 cell line.

Sequence of EGFR T790M/L858R Ba/F3 cell line (P00533 whole entry T790M/L858R): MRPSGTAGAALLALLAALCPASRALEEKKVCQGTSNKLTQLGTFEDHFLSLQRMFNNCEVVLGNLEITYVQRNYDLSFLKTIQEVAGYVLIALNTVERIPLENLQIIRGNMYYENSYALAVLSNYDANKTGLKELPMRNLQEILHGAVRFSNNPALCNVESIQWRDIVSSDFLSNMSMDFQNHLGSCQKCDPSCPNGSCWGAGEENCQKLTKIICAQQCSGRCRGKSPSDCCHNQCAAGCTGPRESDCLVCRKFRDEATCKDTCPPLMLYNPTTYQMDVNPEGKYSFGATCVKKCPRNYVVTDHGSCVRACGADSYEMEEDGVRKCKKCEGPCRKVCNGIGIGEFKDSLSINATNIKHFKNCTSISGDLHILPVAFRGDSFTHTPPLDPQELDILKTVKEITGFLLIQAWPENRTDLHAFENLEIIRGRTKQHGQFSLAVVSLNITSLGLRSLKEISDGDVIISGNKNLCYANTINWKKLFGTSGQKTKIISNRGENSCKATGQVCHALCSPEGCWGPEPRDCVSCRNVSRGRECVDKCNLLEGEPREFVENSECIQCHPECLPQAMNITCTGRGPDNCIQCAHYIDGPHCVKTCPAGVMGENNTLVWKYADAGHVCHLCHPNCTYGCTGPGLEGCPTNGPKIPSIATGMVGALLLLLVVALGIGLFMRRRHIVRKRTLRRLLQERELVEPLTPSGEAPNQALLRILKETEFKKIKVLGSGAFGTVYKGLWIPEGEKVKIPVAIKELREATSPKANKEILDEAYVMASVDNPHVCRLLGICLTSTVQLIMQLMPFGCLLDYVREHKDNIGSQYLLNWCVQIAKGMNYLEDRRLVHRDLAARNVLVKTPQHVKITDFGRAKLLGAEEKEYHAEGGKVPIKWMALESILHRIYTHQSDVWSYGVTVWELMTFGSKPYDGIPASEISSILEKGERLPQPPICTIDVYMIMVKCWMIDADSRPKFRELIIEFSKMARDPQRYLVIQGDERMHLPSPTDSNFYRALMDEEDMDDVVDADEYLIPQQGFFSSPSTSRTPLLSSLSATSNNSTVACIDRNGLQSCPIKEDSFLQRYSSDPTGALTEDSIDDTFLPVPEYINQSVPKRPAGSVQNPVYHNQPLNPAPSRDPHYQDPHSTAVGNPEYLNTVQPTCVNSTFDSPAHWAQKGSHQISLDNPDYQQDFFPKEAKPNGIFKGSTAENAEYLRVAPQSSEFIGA

| SMILES | Activity (% inhibition) |
| --- | --- |
| COC(=O)c1ccc(-c2ccc3c(c2)C(=O)N([C@@H](C(=O)Nc2nccs2)c2ccccc2)C3)cc1 [Compound I-72, methyl (R)-4-(3-oxo-2-(2-oxo-1-phenyl-2-(thiazol-2-ylamino)ethyl)isoindolin-5-yl)benzoate] | B (a % inhibition of between about 50% to about 75%) |
| O=C(Nc1ncco1)[C@H](c1ccccc1)N1Cc2ccccc2C1=O [Compound I-20, (S)-N-(oxazol-2-yl)-2-(1-oxoisoindolin-2-yl)-2-phenylacetamide] | A (a % inhibition of about 75%) |
| O=C(Nc1nccs1)[C@@H](c1ccccc1)N1Cc2ccc(-c3ccc4cc[nH]c4c3)cc2C1=O [Compound I-67, (R)-2-(6-(1H-indol-6-yl)-1-oxoisoindolin-2-yl)-2-phenyl-N-(thiazol-2-yl)acetamide] | C (a % inhibition of between about 25% to about 50%) |
| O=C(Nc1nccs1)C(c1ccccn1)N1Cc2ccc(-c3ccc(N4CCNCC4)cc3)cc2C1=O (centres unmarked) [Compound I-124, 2-(1-oxo-6-(4-(piperazin-1-yl)phenyl)isoindolin-2-yl)-2-(pyridin-2-yl)-N-(thiazol-2-yl)acetamide] | D (a % inhibition of between about 0% to about 25%) |
| O=C(Nc1nccs1)[C@@H](c1cccc([N+](=O)[O-])c1)N1Cc2ccc(-c3ccc4[nH]ccc4c3)cc2C1=O [Compound I-109, (R)-2-(6-(1H-indol-5-yl)-1-oxoisoindolin-2-yl)-2-(3-nitrophenyl)-N-(thiazol-2-yl)acetamide] | B (a % inhibition of between about 50% to about 75%) |
| O=C(Nc1nccs1)[C@@H](c1ccccc1)N1Cc2ccc(-c3cccc(C(=O)N4CCOCC4)c3)cc2C1=O [Compound I-92, (R)-2-(6-(3-(morpholine-4-carbonyl)phenyl)-1-oxoisoindolin-2-yl)-2-phenyl-N-(thiazol-2-yl)acetamide] | C (a % inhibition of between about 25% to about 50%) |
| O=C(Nc1nc(Br)cs1)[C@@H](Cc1ccccc1)N1Cc2ccccc2C1=O [Compound I-50, (R)-N-(4-bromothiazol-2-yl)-2-(1-oxoisoindolin-2-yl)-3-phenylpropanamide] | A (a % inhibition of about 75%) |
| O=C(Nc1nccs1)[C@@H](c1ccccc1)N1Cc2cc(Nc3cccc(CN4CCCC4)c3)ccc2C1=O [Compound I-95, (R)-2-(1-oxo-5-((3-(pyrrolidin-1-ylmethyl)phenyl)amino)isoindolin-2-yl)-2-phenyl-N-(thiazol-2-yl)acetamide] | B (a % inhibition of between about 50% to about 75%) |
| O=C(NCc1ccccc1)[C@@H](c1ccccc1)N1Cc2ccccc2C1=O [Compound I-87, (R)-N-benzyl-2-(1-oxoisoindolin-2-yl)-2-phenylacetamide] | A (a % inhibition of about 75%) |
| O=C(Nc1nc(-c2ccncc2)cs1)[C@@H](c1ccccc1)N1Cc2ccccc2C1=O [Compound I-37, (R)-2-(1-oxoisoindolin-2-yl)-2-phenyl-N-(4-(pyridin-4-yl)thiazol-2-yl)acetamide] | A (a % inhibition of about 75%) |
| O=C(NCC(O)CO)c1cc(Br)ccc1N[C@@H](C(=O)Nc1nccs1)c1ccccc1 (stereo partly drawn) [Compound I-111, 5-bromo-N-(2,3-dihydroxypropyl)-2-(((R)-2-oxo-1-phenyl-2-(thiazol-2-ylamino)ethyl)amino)benzamide] | A (a % inhibition of about 75%) |
| Nc1cccc([C@@H](C(=O)Nc2nccs2)N2Cc3ccccc3C2=O)c1 [Compound I-13, (S)-2-(3-aminophenyl)-2-(1-oxoisoindolin-2-yl)-N-(thiazol-2-yl)acetamide] | A (a % inhibition of about 75%) |
| O=C(Nc1cncnc1)[C@@H](c1ccccc1)N1Cc2ccc(-c3ccc4[nH]ccc4c3)cc2C1=O [Compound I-134, (R)-2-(6-(1H-indol-5-yl)-1-oxoisoindolin-2-yl)-2-phenyl-N-(pyrimidin-5-yl)acetamide] | A (a % inhibition of about 75%) |
| O=C(Nc1nccs1)[C@@H](c1ccccc1)N1Cc2cc(-c3ccc4c(c3)OCCO4)ccc2C1=O [Compound I-103, (R)-2-(5-(2,3-dihydrobenzo[b] [1,4]dioxin-6-yl)-1-oxoisoindolin-2-yl)-2-phenyl-N-(thiazol-2-yl)acetamide] | C (a % inhibition of between about 25% to about 50%) |
| O=C(Nc1nccs1)[C@@H](c1cccc([N+](=O)[O-])c1)N1Cc2ccccc2C1=O [Compound I-18, (R)-2-(3-nitrophenyl)-2-(1-oxoisoindolin-2-yl)-N-(thiazol-2-yl)acetamide] | A (a % inhibition of about 75%) |
| O=C(Nc1nccs1)[C@@H](c1ccccc1)N1Cc2ccc(-c3ccc(C(=O)N4CCOCC4)cc3)cc2C1=O [Compound I-85, (R)-2-(6-(4-(morpholine-4-carbonyl)phenyl)-1-oxoisoindolin-2-yl)-2-phenyl-N-(thiazol-2-yl)acetamide] | D (a % inhibition of between about 0% to about 25%) |
| O=C(Nc1nccs1)[C@@H](c1ccccc1)N1Cc2cc(-c3ccccc3F)ccc2C1=O [Compound I-101, (R)-2-(5-(2-fluorophenyl)-1-oxoisoindolin-2-yl)-2-phenyl-N-(thiazol-2-yl)acetamide] | B (a % inhibition of between about 50% to about 75%) |
| O=C(Nc1nccs1)[C@@H](c1ccccc1)N1Cc2ccc(-c3ccccn3)cc2C1=O [Compound I-108, (R)-2-(1-oxo-6-(pyridin-2-yl)isoindolin-2-yl)-2-phenyl-N-(thiazol-2-yl)acetamide] | C (a % inhibition of between about 25% to about 50%) |
| O=C(Nc1cnc(Br)cn1)[C@@H](c1ccccc1)N1Cc2ccccc2C1=O [Compound I-27, (R)-N-(5-bromopyrazin-2-yl)-2-(1-oxoisoindolin-2-yl)-2-phenylacetamide] | A (a % inhibition of about 75%) |
| O=C(Nc1nccs1)[C@@H](c1ccccc1)N1Cc2ccc(-c3cccc4cccnc34)cc2C1=O [Compound I-71, (R)-2-(1-oxo-6-(quinolin-8-yl)isoindolin-2-yl)-2-phenyl-N-(thiazol-2-yl)acetamide] | C (a % inhibition of between about 25% to about 50%) |
| O=C(Nc1nccs1)[C@@H](c1ccccc1)N1Cc2cc(Nc3ccc(OCc4ccccc4)cc3)ccc2C1=O [Compound I-96, (R)-2-(5-((4-(benzyloxy)phenyl)amino)-1-oxoisoindolin-2-yl)-2-phenyl-N-(thiazol-2-yl)acetamide] | A (a % inhibition of about 75%) |
| COc1ccc(-c2ccc3c(c2)C(=O)N([C@@H](C(=O)Nc2nccs2)c2ccccc2)C3)c(OC)c1 [Compound I-80, (R)-2-(6-(2,4-dimethoxyphenyl)-1-oxoisoindolin-2-yl)-2-phenyl-N-(thiazol-2-yl)acetamide] | C (a % inhibition of between about 25% to about 50%) |
| O=C(Nc1nc(C(F)(F)F)cs1)[C@@H](c1ccccc1)N1Cc2ccccc2C1=O [Compound I-6, (R)-2-(1-oxoisoindolin-2-yl)-2-phenyl-N-(4-(trifluoromethyl)thiazol-2-yl)acetamide] | A (a % inhibition of about 75%) |
| O=C(Nc1nccs1)[C@@H](c1ccccc1)N1Cc2ccc(-c3ccccc3)cc2C1=O [Compound I-59, (R)-2-(1-oxo-6-phenylisoindolin-2-yl)-2-phenyl-N-(thiazol-2-yl)acetamide] | C (a % inhibition of between about 25% to about 50%) |
| Nc1cccc(-c2ccc3c(c2)C(=O)N([C@@H](C(=O)Nc2nccs2)c2ccccc2)C3)c1 [Compound I-73, (R)-2-(6-(3-aminophenyl)-1-oxoisoindolin-2-yl)-2-phenyl-N-(thiazol-2-yl)acetamide] | C (a % inhibition of between about 25% to about 50%) |
| O=C(Nc1ncco1)[C@@H](c1ccccc1)N1Cc2ccccc2C1=O [Compound I-19, (R)-N-(oxazol-2-yl)-2-(1-oxoisoindolin-2-yl)-2-phenylacetamide] | A (a % inhibition of about 75%) |
